We go through 1 sequence from publication PMC10969560, “Eye Drop with Fas-Blocking Peptide Attenuates Age-Related Macular Degeneration” (Cells, 2024).

In one assay the test system is NF-κB, ERK, and JNK. Briefly: RT-PCR of cytokine and signaling pathway-related genes in NaIO3-treated ARPE-19 cells. The class given is cell-based, human. As to conditions: ARPE-19, NaIO3 10 mM + FBP 700 μM, 24 h; Figure 1D. The protocol:
(§1) After 24 h of treatment with NaIO3 (10 mM) and the FBP peptide (700 μM), the cells were harvested for analysis. Total RNA from the ARPE-19 cells was extracted using the RNAiso kit (Takara, Kyoto, Japan). Total RNA was reverse-transcribed into cDNA using the High-Capacity cDNA Reverse Transcription Kit (Applied Biosystems, Waltham, MA, USA). The quantification of gene expression was performed using PowerUp™ SYBR™ Green Master Mix (Thermo Fisher Scientific, Waltham, MA, USA) on an ABI 7500 Fast Real-Time PCR system (Applied Biosystems, Waltham, MA, USA). The sequences of primer pairs used for real-time PCR are depicted in Table 2.

The test system of the next assay is cleaved caspase-3 and 8. Briefly: Western blot of apoptosis-related proteins in NaIO3-treated ARPE-19 cells. The assay is classed as cell-based, human. As to conditions: ARPE-19, NaIO3-treated; Figure 1C. The procedure:
Total protein samples were extracted from ARPE-19 cells using ice-cold RIPA buffer containing a protease inhibitor cocktail. A 4× sample buffer containing Tris-(2-Carboxyethyl)phosphine (Invitrogen, Carlsbad, CA, USA) was prepared by mixing 950 µL of 4× Laemmli sample buffer (GenDEPOT) with 50 µL of Tris-(2-Carboxyethyl)phosphine (Invitrogen). Protein samples (15 μg) were diluted in the sample buffer and heated at 95 °C for 5 min. The samples were then loaded onto a 12% SDS-PAGE gel and transferred onto a PVDF transfer membrane. The blots were probed with rabbit anti-cleaved caspase-3 (1:1000, Abcam, Cambridge, UK, ab52293), anti-cleaved caspase-8 (1:1000, Abcam, ab25901) and rabbit polyclonal anti-Fas (1:1000, Abcam, ab82419). Secondary polyclonal antibodies were probed with rabbit IgG coupled to HRP (1:2000, Abcam, ab97051). Finally, the blots were developed using ECL Western blotting substrate (Promega, Madison, WI, USA).
A general note: A western blot detects proteins with antibodies after separation by electrophoresis.

Another assay has as its system ARPE-19 cells. The assay can be described thus: Annexin V/PI flow cytometry apoptosis analysis in NaIO3-treated ARPE-19 cells. The assay is classed as cell-based, human. Conditions: ARPE-19, NaIO3 10 mM + peptide 700 μM, 24 h; N=3; Figure 1B. The protocol:
The efficacy of FBP on the inhibition of ARPE-19 cell apoptosis was assessed through annexin V/propidium iodide (PI) staining, followed by flow cytometry analysis. […] After 24 h of treatment with NaIO3 (10 mM) and the FBP peptide (700 μM), the cells were harvested and stained using the Dead Cell Apoptosis Kits with annexin V for Flow Cytometry (Invitrogen, Carlsbad, CA, USA), following the manufacturer’s protocol. The stained cells were collected and analyzed using a BD FACSCalibur™ system (Becton Dickinson, Franklin Lakes, NJ, USA).
In general terms: Flow cytometry measures light scatter and fluorescence of single cells or particles in a stream.

Assay [1] concerns NaIO3-induced retinal degeneration rabbits. Briefly: H&E staining, ONL to total retinal thickness, in NaIO3-induced retinal degeneration rabbits. The class given is in vivo, chinchilla rabbits. As to conditions: rabbit, Day 14, N=4, Figure 4D. The procedure:
The efficacy of the treatment was evaluated through an experiment conducted by KNOTUS, a contract research organization. In brief, retinal degeneration was induced by intravenous injection of NaIO3 (60 mg/kg) in 20 chinchilla rabbits, weighing 2 kg.
The eye drop administration group received dosages of 5 mg/mL (250 μg/50 μL) per ocular instillation. For intravitreal administration, peptide solutions (5 mg/mL) were administered in increments of 40 μL per administration. A pipette was used to administer the test substance onto the central cornea of the right eye for each experimental group.
Anesthetized animals were administered the test substance via subconjunctival injection into the right eye using a 31-gauge syringe needle attached to a syringe. In the case of eye drop administration, the peptides and PBS were administered twice daily for 2 weeks, for a total of 28 administrations. For intravitreal administration, a single dose of the peptide was administered the day after the NaIO3 injection.
On the concluding day of the experiment (Day 14), the animals were anesthetized using the previously described mixture of Zoletil®50 and Rompun^TM, after which they were sacrificed. NaIO3-induced retinal degeneration eyes were then extracted, and the central cornea was punctured using an injection needle. Subsequently, the specimens were fixed in a 10% neutral buffered formalin solution. For histopathological examination, the fixed tissues were subjected to processes such as fixation, dehydration, paraffin embedding, and sectioning. H&E staining was then performed, and the proportion (%) of the thickness of the outer nuclear layer (ONL) to the overall retinal thickness was calculated using an Olympus BX-53 optical microscope (Olympus, Tokyo, Japan). Two slides were prepared per eyeball relative to the optic nerve. Measurements were taken at three points on each slide, amounting to a total of six values, which were averaged.

Assay [2] has as its system NaIO3-induced retinal degeneration mice. Briefly: TUNEL assay in NaIO3-induced retinal degeneration mouse model. Conditions: N=3, Figure 3C. The class given is in vivo, BALB/c mice. The procedure: To confirm the therapeutic effect of 6R-FBP, histological evaluation was conducted through hematoxylin and eosin (H&E) staining and the TUNEL assay. The eyes were fixed with 4% paraformaldehyde in PBS at room temperature for 20 min. After fixation, the eyes were sequentially incubated in 10%, 20%, and 30% (w/v) sucrose solution diluted in PBS for 30 min each at room temperature. Subsequently, the eyeballs were sagittally halved with a razor blade and embedded in Tissue-Tek® OCT Compound, and then frozen immediately in a liquid nitrogen chamber. Trimming was minimized to maintain controlled distances and ensure consistency, and sections were sliced at a thickness of 10 μm. Sections from the eye cryoblock were used for H&E staining and the TUNEL assay. The TUNEL assay was conducted according to the manufacturer’s protocol using the TUNEL assay kit (Abcam).

The next assay deals with Fas. Briefly: RT-PCR of Fas expression in NaIO3-treated ARPE-19 cells. Conditions: ARPE-19, NaIO3 10 mM + peptide 700 μM, 24 h; N=3; Figure 1A. The class given is cell-based, human. The protocol:
as §1

The next assay has as its system Fas/FasL. Conditions: neuronal cells; previous study; cited from earlier work.
For assay [3], the system named is NaIO3-induced ARPE-19 cells. Briefly: CCK-8 cell viability in NaIO3-induced ARPE-19 cells. The assay is classed as cell-based, human. Conditions: NaIO3 10 mM, 24 h, FBP 100, 300, 500, 700, 900 μM, three independent experiments, Figure S2. The procedure: All experiments were performed using cells within specified passages.
Figure S2. Concentration -dependent cel l viability in NaI O3-indu ced ARPE-19 cells. Cell viability under concentration-dependent conditions wa s evaluated in NaIO3-induced ARPE- 19 cells. The data are presented as the mean ± SD from three independent experiments. ***P<0.001, and ns indicates not significa nt.

Consider YCDEHFCY [FBP], for which the “levels of NF-κB, ERK, and JNK (RT-PCR)” value in the assay with NF-κB, ERK, and JNK was “decreased levels”. Moreover, in the assay on cleaved caspase-3 and 8, the “levels of cleaved caspase-3 and 8 (Western blot)” value is reported as “significant decrease”. Besides, the “apoptosis (annexin V/PI staining) compared with mock group” value with ARPE-19 cells is listed as “statistically significant decrease in apoptosis”. The “proportion of thickness of ONL to total retinal thickness compared with mock group (H&E)” value in assay [1] (eye drops twice daily) and in assay [1] (single intravitreal injection) was “maintenance of the ONL” in each case. In addition, the figures for the “apoptosis levels in retina (TUNEL)” value in assay [2] (eye drop application) and in assay [2] (intravitreal injection) were “higher apoptosis levels” and “lower apoptosis levels”, respectively. Also, the “expression of Fas (RT-PCR)” value in the assay on Fas is reported as “reduced”. Moreover, in the assay with Fas/FasL, the “inhibition of Fas/FasL ligation” value is listed as “effective inhibition of Fas/FasL ligation”. Besides, the “FBP concentration at which viability of NaIO3-induced ARPE-19 cells was maximum” value in assay [3] is reported as “exceeding 700 μM”.
